Laboratory results taken from patent US20260217708A1, “FUSED BENZAZEPINE DERIVATIVES FOR USE IN THE TREATMENT OF CANCER AND EPILEPSY” (UCB BIOPHARMA SRL, priority 2023, published 2026).

Legend:
[1] = target: T1, system Xc^− (Homo sapiens, UniProt Q9UPY5); experiment: Cystine-induced glutamate release assay; assay type: cell-based; set-up: endogenous in cells; host or cells: H4 cells; details: H4 cells, sodium-free HEPES buffer, 50 μM L-Cystine, 2 hours, Amplex Red glutamate readout; read-out: pIC50 Cystine-induced glutamate release assay (converted)
T1 sequence (Q9UPY5 1-501): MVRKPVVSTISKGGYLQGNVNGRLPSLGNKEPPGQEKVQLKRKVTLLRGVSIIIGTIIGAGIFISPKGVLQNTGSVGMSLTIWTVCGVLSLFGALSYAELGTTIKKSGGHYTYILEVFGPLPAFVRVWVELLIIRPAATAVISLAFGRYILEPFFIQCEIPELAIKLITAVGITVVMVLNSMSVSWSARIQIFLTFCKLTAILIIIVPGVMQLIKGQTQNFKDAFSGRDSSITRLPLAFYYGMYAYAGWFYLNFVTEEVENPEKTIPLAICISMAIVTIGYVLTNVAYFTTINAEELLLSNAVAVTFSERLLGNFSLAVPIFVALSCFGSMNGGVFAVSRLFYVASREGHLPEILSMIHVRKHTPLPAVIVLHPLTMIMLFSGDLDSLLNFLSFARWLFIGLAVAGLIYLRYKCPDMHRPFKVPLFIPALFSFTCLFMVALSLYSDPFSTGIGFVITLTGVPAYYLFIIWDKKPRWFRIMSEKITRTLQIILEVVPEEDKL
T1 sequence (P08195 1-529 partner): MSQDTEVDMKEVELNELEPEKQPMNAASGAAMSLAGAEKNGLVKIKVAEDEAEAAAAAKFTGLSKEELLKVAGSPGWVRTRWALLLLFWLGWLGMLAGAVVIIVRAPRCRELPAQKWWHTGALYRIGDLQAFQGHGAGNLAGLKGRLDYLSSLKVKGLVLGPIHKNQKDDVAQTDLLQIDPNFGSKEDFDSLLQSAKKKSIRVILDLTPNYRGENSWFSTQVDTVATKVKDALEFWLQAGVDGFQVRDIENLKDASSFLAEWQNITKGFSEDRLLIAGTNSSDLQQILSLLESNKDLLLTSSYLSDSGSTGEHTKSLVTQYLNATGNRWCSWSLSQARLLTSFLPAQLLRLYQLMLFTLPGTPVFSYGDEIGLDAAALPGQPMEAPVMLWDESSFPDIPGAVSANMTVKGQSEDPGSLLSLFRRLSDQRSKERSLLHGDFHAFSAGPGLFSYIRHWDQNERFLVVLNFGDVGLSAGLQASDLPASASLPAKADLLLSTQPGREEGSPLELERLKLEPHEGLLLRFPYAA
Outline: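 H4 cells in sodium-free HEPES buffer (pH 7.4), 2 days after plating; glutamate release induced with 50 μM L-cystine plus compound (1% DMSO), 2 h at 37 °C. Supernatant glutamate measured by Amplex Red fluorescence; IC50/pIC50 derived between 1% DMSO and 50 μM erastin controls.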

[2] = target: T1, system Xc^−; experiment: [^14C]L-Cystine uptake assay; assay type: cell-based; set-up: endogenous in cells; host or cells: H4 cells; details: H4 cells, sodium-free HEPES buffer, 0.5 μM L-[14C]Cystine and 4.5 μM L-Cystine, 1 hour at 37° C.; read-out: pIC50 [^14C] L-Cystine uptake assay (converted)
Outline: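 H4 cells at 5×10^4 cells/well in sodium-free HEPES buffer were preincubated 15 min with compounds (1% DMSO). Uptake of 0.5 μM [14C]L-cystine plus 4.5 μM unlabelled L-cystine ran 1 hour at 37° C on scintillating plates. IC50 was set between 1% DMSO and 50 μM Erastin controls and expressed as pIC50.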

Cc1cc2c(cn1)-c1cccnc1CC(=O)N2CC(=O)Nc1ccc(C(F)(F)F)cc1 [#36, 2-(5-methyl-9-oxo-4,8,12-triazatricyclo[9.4.0.0^2,7]pentadeca-1(11),2(7),3,5,12,14-hexaen-8-yl)-N-[4-(trifluoromethyl)phenyl]acetamide]
IC50 [1]: 39.8 to 100 nM
IC50 [2]: 100 to 501 nM

Cc1ccc(NC(=O)CN2C(=O)Cc3cccnc3-c3cnc(Cl)cc32)cc1Cl [#18, N-(3-chloro-4-methyl-phenyl)-2-(13-chloro-9-oxo-3,10,14-triazatricyclo[9.4.0.0^2,7]pentadeca-1(11),2(7),3,5,12,14-hexaen-10-yl)acetamide]
IC50 [1]: 100 to 501 nM
IC50 [2]: 100 to 501 nM

Cc1cc2c(c(F)n1)-c1cccnc1C(C)C(=O)N2CC(=O)Nc1ccc(Cl)c(F)c1 (stereo not drawn) [#90, N-(4-chloro-3-fluoro-phenyl)-2-(3-fluoro-5,10-dimethyl-9-oxo-4,8,12-triazatricyclo[9.4.0.0^2,7]pentadeca-1(11),2(7),3,5,12,14-hexaen-8-yl)acetamide]
IC50 [1]: 15.8 to 39.8 nM
IC50 [2]: < 15.8 nM

Cc1cc2c(c(Cl)n1)-c1cccnc1C(C)C(=O)N2CC(=O)Nc1ccc(Br)cc1F (single isomer, unassigned) [#227, Enantiomer (10S) or (10R) of N-(4-bromo-2-fluoro-phenyl)-2-[3-chloro-5,10-dimethyl-9-oxo-4,8,12-triazatricyclo[9.4.0.0^2,7]pentadeca-1(11),2(7),3,5,12,14-hexaen-8-yl]acetamide]
IC50 [1]: < 15.8 nM
IC50 [2]: 15.8 to 39.8 nM

Cc1cc2c(c(F)n1)-c1cccnc1[C@@H](C)C(=O)N2CC(=O)Nc1ccc(C2(F)CC2)c(F)c1 [#248, 2-[(10R)-3-fluoro-5,10-dimethyl-9-oxo-4,8,12-triazatricyclo[9.4.0.0^2,7]pentadeca-1(11),2(7),3,5,12,14-hexaen-8-yl]-N-[3-fluoro-4-(1-fluorocyclopropyl)phenyl]acetamide]
IC50 [1]: < 15.8 nM
IC50 [2]: < 15.8 nM

Cc1cc2c(cn1)N(CC(=O)Nc1ccc(C(F)(F)F)cc1)C(=O)Cc1ccccc1-2 [#29, 2-(2-methyl-6-oxo-7H-pyrido[3,4-d] [3]benzazepin-5-yl)-N-[4-(trifluoro-methyl)phenyl] acetamide]
IC50 [1]: 100 to 501 nM
IC50 [2]: 100 to 501 nM

CC1C(=O)N(CC(=O)Nc2ccc(Cl)c(F)c2)c2cc(N3[C@@H]4CCC[C@H]3C4)nc(F)c2-c2cccnc21 (single isomer, unassigned) [#269, 2-[5-(6-azabicyclo[3.1.1]heptan-6-yl)-3-fluoro-10-methyl-9-oxo-4,8,12-triazatricyclo[9.4.0.0^2,7]pentadeca-1(11),2(7),3,5,12,14-hexaen-8-yl]-N-(4-chloro-3-fluoro-phenyl)acetamide]
IC50 [1]: 39.8 to 100 nM
IC50 [2]: 39.8 to 100 nM

CC1C(=O)N(CC(=O)Nc2ccc(C(F)F)cc2)c2cc(N3CC(F)C3)nc(F)c2-c2cccnc21 (single isomer, unassigned) [#274, N-[4-(difluoromethyl)phenyl]-2-[3-fluoro-5-(3-fluoroazetidin-1-yl)-10-methyl-9-oxo-4,8,12-triazatricyclo[9.4.0.0^2,7]pentadeca-1(15),2,4,6,11,13-hexaen-8-yl]acetamide]
IC50 [1]: < 15.8 nM
IC50 [2]: < 15.8 nM

Cc1cc2c(c(=O)n1C)-c1ccc(Cl)cc1C(C)C(=O)N2CC(=O)Nc1ccc(Cl)c(F)c1 (stereo not drawn) [#352, N-(4-chloro-3-fluoro-phenyl)-2-(9-chloro-2,3,7-trimethyl-1,6-dioxo-7H-pyrido[4,3-d][3]benzazepin-5-yl)acetamide]
IC50 [1]: 15.8 to 39.8 nM
IC50 [2]: < 15.8 nM

Cc1cc2c(c(F)n1)-c1cnccc1C(C)C(=O)N2CC(=O)Nc1ccc(C(F)(F)F)cc1 (stereo not drawn) [#180, 2-(3-fluoro-5,10-dimethyl-9-oxo-4,8,14-triazatricyclo[9.4.0.0^2,7]pentadeca-1(11),2(7),3,5,12,14-hexaen-8-yl)-N-[4-(trifluoromethyl)phenyl]acetamide]
IC50 [1]: 39.8 to 100 nM
IC50 [2]: 15.8 to 39.8 nM

Cc1cc2c(c(C)n1)-c1cc(F)ccc1CC(=O)N2CC(=O)Nc1ccc(C(F)(F)F)cc1 [#63, 2-(10-fluoro-1,3-dimeth-yl-6-oxo-7H-pyrido[4,3-d][3]benzazepin-5-yl)-N-[4-(trifluoromethyl)-phenyl]acetamide]
IC50 [1]: 15.8 to 39.8 nM
IC50 [2]: < 15.8 nM

Cc1cc2c(c(=O)[nH]1)-c1ccccc1C(C)C(=O)N2CC(=O)Nc1ccc(C(F)(F)F)cc1 (stereo not drawn) [#156, 2-(3,7-dimethyl-1,6-dioxo-2,7-dihydropyrido[4,3-d][3]benzazepin-5-yl)-N-[4-(trifluoromethyl)phenyl]acetamide]
IC50 [1]: 15.8 to 39.8 nM
IC50 [2]: 39.8 to 100 nM

Cc1cc2c(cn1)-c1cc(F)cnc1C(C)C(=O)N2CC(=O)Nc1ccc(C(F)F)cc1 (single isomer, unassigned) [#328, N-[4-(difluoromethyl)phenyl]-2-[14-fluoro-5,10-dimethyl-9-oxo-4,8,12-triazatricyclo[9.4.0.0^2,7]pentadeca-1(15),2,4,6,11,13-hexaen-8-yl]acetamide]
IC50 [1]: < 15.8 nM
IC50 [2]: 15.8 to 39.8 nM

CC1C(=O)N(CC(=O)Nc2ccc(Cl)c(F)c2)c2ccn(C)c(=O)c2-c2ccccc21 (stereo not drawn) [#351, N-(4-chloro-3-fluoro-phenyl)-2-(2,7-dimethyl-1,6-dioxo-7H-pyrido[4,3-d][3]benzazepin-5-yl)acetamide]
IC50 [1]: 39.8 to 100 nM
IC50 [2]: 39.8 to 100 nM

Cc1cc2c(c(F)n1)-c1ccccc1CC(=O)N2CC(=O)Nc1ccc(C(F)(F)F)cc1 [#39, 2-(1-fluoro-3-methyl-6-oxo-7H-pyrido[4,3-d][3]benzazepin-5-yl)-N-[4-(trifluorometh-yl)phenyl]acetamide]
IC50 [1]: 15.8 to 39.8 nM
IC50 [2]: 15.8 to 39.8 nM

O=C(CN1C(=O)Cc2ncccc2-c2c1cc(N1CC3(CC3)C1)nc2F)Nc1ccc(C(F)F)cc1 [#294, 2-[5-(5-azaspiro[2.3]hexan-5-yl)-3-fluoro-9-oxo-4,8,12-triazatricyclo[9.4.0.0^2,7]pentadeca-1(15),2,4,6,11,13-hexaen-8-yl]-N-[4-(difluoromethyl)phenyl]acetamide]
IC50 [1]: 15.8 to 39.8 nM
IC50 [2]: 39.8 to 100 nM

CC1C(=O)N(CC(=O)Nc2ccc(Cl)c(F)c2)c2cc(C#N)ccc2-c2cccnc21 (stereo not drawn) [#311, N-(4-chloro-3-fluoro-phenyl)-2-(9-cyano-5-methyl-6-oxo-5H-pyrido[2,3-d][1]benzazepin-7-yl)acetamide]
IC50 [1]: < 15.8 nM
IC50 [2]: 39.8 to 100 nM

Cc1cc2c(n(C)c1=O)-c1ccccc1C(C)C(=O)N2CC(=O)Nc1ccc(C(F)(F)F)cc1 (single isomer, unassigned) [#121, N-[4-(trifluoromethyl)phenyl]-2-[1,3,7-trimethyl-2,6-dioxo-7H-pyrido[3,2-d][3]benzazepin-5-yl]acetamide]
IC50 [1]: < 15.8 nM
IC50 [2]: < 15.8 nM

Cc1cc2c(c(=O)n1C)-c1cccnc1[C@@H](C)C(=O)N2CC(=O)Nc1ccc(C(F)(F)F)cc1 (single isomer, unassigned) [#178, Enantiomer (10R) or (10S) of N-[4-(trifluoromethyl)phenyl]-2-[4,5,10-trimethyl-3,9-dioxo-4,8,12-triazatricyclo[9.4.0.0^2,7]pentadeca-1(15),2(7),5,11,13-pentaen-8-yl]acetamide]
IC50 [1]: < 15.8 nM
IC50 [2]: < 15.8 nM

Cc1cc2c(cn1)-c1cccnc1C(C)C(=O)N2CC(=O)Nc1ccc(C(F)(F)F)cc1 (stereo not drawn) [#91, 2-(5,10-dimethyl-9-oxo-4,8,12-triazatricyclo[9.4.0.0^2,7]pentadeca-1(11),2(7),3,5,12,14-hexaen-8-yl)-N-[4-(trifluoromethyl)phenyl]acetamide]
IC50 [1]: 39.8 to 100 nM
IC50 [2]: 15.8 to 39.8 nM

Cc1cc2c(c(Cl)n1)-c1cc(C)nn1CC(=O)N2CC(=O)Nc1ccc(C(F)(F)F)cc1 [#105, 2-(14-chloro-4,12-dimethyl-8-oxo-5,6,9,13-tetrazatricyclo[8.4.0.0^2,6]tetradeca-1(14),2,4,10,12-pentaen-9-yl)-N-[4-(trifluoromethyl)phenyl]acetamide]
IC50 [1]: 39.8 to 100 nM
IC50 [2]: 39.8 to 100 nM
